This is an account of results in PMC7571124 (Molecules, 2020).

The term IC50 denotes the concentration at which inhibition is half-maximal. In general, Ki refers to a measure of affinity in units of concentration, obtained from inhibition or displacement. Read a high Ki as weaker binding. In general, Km refers to the substrate concentration at which the rate is half of its maximum. In general, Vmax refers to the rate approached at saturating substrate.

Like-named read-outs stand apart in the source and are kept apart here. Residues, ends and D or L forms follow the SMILES beside them.

Data set [1] has as its target neuraminidase of A/CHK/MX/1994 H5N2 (Influenza A virus, UniProt Q0A2F2). Type of data set: biochemical, Influenza A virus A/Chicken/Mexico/31381-7/1994 (H5N2).
The subject of data set [2] is avian influenza A A/CHK/MX/1994 H5N2 virus. Description: microbe, parasite or virus in culture. The format is cell-based. The following applies: for IC50: read-out: IC50 of viral replication inhibition.
Data set [3] deals with T1, neuraminidase of A/PR/8/34 H1N1 (Influenza A virus, UniProt P03468).
T1 construct: Samples of cell supernatant infected with whole virus were used as source of enzymes; host or cells: MDCK cells infected with the virus; clarified culture supernatant
Description: biochemical. The format is biochemical, Influenza A virus A/Puerto Rico/8/34 (H1N1).

The nature of a further data set: in vitro. The note with it: dog.
The next data set concerns MDCK cells. The following applies: dog.

Compound “3-(propylaminosulfonyl)-4-chlorobenzoic acid [STL]” displayed a half-maximal inhibitory concentration (IC50) in data set [1] of 24.8 ± 1.3 mM. Also, the “inhibition of viral replication (lytic plaques)” value (“inhibition of viral replication” below) in data set [2] (at 100 μM) is given as “losing this effect”; in data set [2] (at 1 mM), “completely inhibited”.
For the compound `CSCCC(NC(=O)C(Cc1ccccc1)NC(C)=O)C(=O)O` (stereo not drawn) [AAMOL, N-acetylphenylalanylmethionine] (Ac-Phe-Met-OH; configuration not given here), the inhibition mechanism result in data set [1] is “competitive”. In addition, in data set [3], the IC50 was determined as 57 ± 1.1 mM, the Ki is 15.3 mM and the inhibition mechanism entry is on record as “competitive”. Besides, the “inhibition of viral replication” value in data set [2] (at 1 μM) is “no inhibition effect was observed”. The compound also gave a CC50 in the data set “in vitro” of 0.016 ± 0.0015 mM.
For the compound `O=C1O[C@H]([C@@H](O)CO)C(O)=C1O` [CIV, ascorbic acid], the inhibition mechanism entry in data set [1] is on record as “noncompetitive”. Further, in data set [3], the IC50 came out at 32 ± 1.5 mM, affinity was put at a Ki of 26.4 mM and the inhibition mechanism entry was “noncompetitive”. Besides, in data set [2] (at 1 μM), the “inhibition of viral replication” value is reported as “no inhibition effect was observed”. The compound also gave a CC50 in “in vitro” of 0.0003 mM. The CC50 in the data set with MDCK cells worked out at 0.00055 ± 0.0011 mM.
As for `Cc1ccc(C)c(NC(=O)CC(C(=O)O)N2CCNCC2)c1` (stereo not shown) [FMOL, propanoic 3-[(2,5-dimethylphenyl)carbamoyl]-2-(piperazin-1-yl) acid], the “inhibition of viral replication” value was “affected the size and number of plaques” in data set [2] (at 100 μM); “affected the size and number of plaques” in data set [2] (at 1 mM).
For the compound `CC(=O)N[C@H]1[C@H]([C@H](O)[C@H](O)CO)O[C@@](Oc2ccc3c(C)cc(=O)oc3c2)(C(=O)O)C[C@@H]1O` [MUNANA, 2′-O-(4-methylumbelliferyl)-α-dN-acetylneuraminic acid], in data set [1], the Km is 106 µM and the maximum rate (Vmax) was found to be 5.2 µmol/min. In addition, in data set [3], the Km was found to be 142 µM and the Vmax is 2.77 µmol/min.
`CCCN(CCC)S(=O)(=O)c1ccc(C(=O)O)cc1` [ORP, 4-(dipropylsulfamoyl) benzoic acid]: the inhibition mechanism result in data set [1] is “competitive”. Besides, in data set [3], the IC50 turned out to be 23 ± 1.2 mM, the Ki came out at 10.5 mM and the inhibition mechanism result is listed as “competitive”. For the same compound, the IC50 in data set [2] (Influenza A virus, H5N2, MDCK, in Canis lupus familiaris) came out at 0.157 mM. Further, the “inhibition of viral replication” value in data set [2] (at 1 mM) was “only lowered the number of plaques”.
Regarding `CC(=O)N[C@H]1[C@H]([C@H](O)[C@H](O)CO)OC(C(=O)O)=C[C@@H]1N=C(N)N` [Zanamivir, zanamivir], in data set [1], the inhibition mechanism result is “competitive”. In data set [2], the lytic plaque formation result was “not detected” and the IC50 came out at 0.000741 mM.
